Results from ChEMBL document CHEMBL2062494, “Synthesis and biochemical evaluation of thiochromanone thiosemicarbazone analogues as inhibitors of cathepsin L” (ACS Med Chem Lett, 2012).

Legend:
Procathepsin L = Procathepsin L (Homo sapiens, UniProt P07711); test: Inhibition of human liver cathepsin L using Z-R-R-AMC as substrate preincubated with compound for 5 mins measured after 20 mins by fluorescence analysis
Cathepsin B = Cathepsin B (Homo sapiens, UniProt P07858); test: Inhibition of human liver cathepsin B using Z-R-R-AMC as substrate preincubated with compound for 5 mins measured after 20 mins by fluorescence analysis

Chain of Procathepsin L (P07711 whole entry): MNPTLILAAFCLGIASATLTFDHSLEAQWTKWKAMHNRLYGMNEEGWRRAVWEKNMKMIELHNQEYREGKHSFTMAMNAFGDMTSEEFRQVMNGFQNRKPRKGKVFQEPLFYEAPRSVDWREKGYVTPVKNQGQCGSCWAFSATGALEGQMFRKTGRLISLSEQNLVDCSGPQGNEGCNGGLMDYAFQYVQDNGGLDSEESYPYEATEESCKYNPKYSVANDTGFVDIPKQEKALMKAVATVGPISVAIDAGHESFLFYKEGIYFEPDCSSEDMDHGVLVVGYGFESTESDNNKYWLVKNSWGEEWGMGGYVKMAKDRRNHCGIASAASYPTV

SMILES	IC50 (Procathepsin L)	IC50 (Cathepsin B)
NC(=S)N/N=C1\CCSc2ccc(Cl)cc21	0.228 µM	> 10 µM
NC(=S)N/N=C1\CCSc2c(OC(F)(F)F)cccc21	> 10 µM	> 10 µM
NC(=S)N/N=C1\CCSc2ccc(F)cc21	0.741 µM	> 10 µM
NC(=S)N/N=C1\CCSc2c(Br)cc(F)cc21	> 10 µM	> 10 µM
Cc1ccc2c(c1)/C(=N/NC(N)=S)CCS2	0.214 µM	> 10 µM
CC(C)c1ccc2c(c1)/C(=N/NC(N)=S)CCS2	> 10 µM	> 10 µM
COc1ccc2c(c1)/C(=N/NC(N)=S)CCS2	> 10 µM	> 10 µM
NC(=S)N/N=C1\CCSc2ccc(C(F)(F)F)cc21	0.284 µM	> 10 µM
NC(=S)N/N=C1\CCSc2ccc(OC(F)(F)F)cc21	0.256 µM	> 10 µM
NC(=S)N/N=C1\CCSc2ccc(O)cc21	> 10 µM	> 10 µM
NC(=S)N/N=C1\CCSc2ccc3ccccc3c21	> 10 µM	> 10 µM
NC(=S)N/N=C1\CCS(=O)(=O)c2cc(F)c(F)cc21	3.65 µM	> 10 µM
NC(=S)N/N=C1\CCS(=O)(=O)c2c(F)cc(F)cc21	> 10 µM	> 10 µM
NC(=S)N/N=C1\CCS(=O)(=O)c2c(Br)cc(F)cc21	> 10 µM	> 10 µM
NC(=S)N/N=C1\CCS(=O)(=O)c2c(F)cc(Br)cc21	1.12 µM	> 10 µM
Cc1ccc2c(c1)/C(=N/NC(N)=S)CCS2(=O)=O	> 10 µM	> 10 µM
CC(C)c1ccc2c(c1)/C(=N/NC(N)=S)CCS2(=O)=O	> 10 µM	> 10 µM
COc1ccc2c(c1)/C(=N/NC(N)=S)CCS2(=O)=O	> 10 µM	> 10 µM
NC(=S)N/N=C1\CCS(=O)(=O)c2ccc(C(F)(F)F)cc21	0.26 µM	> 10 µM
NC(=S)N/N=C1\CCS(=O)(=O)c2ccc(OC(F)(F)F)cc21	3.96 µM	> 10 µM
CC(=O)Nc1ccc2c(c1)/C(=N/NC(N)=S)CCS2(=O)=O	> 10 µM	> 10 µM
NC(=S)NN=C1CCSc2ccc(N)cc21 (mixture of isomers)	> 10 µM	> 10 µM
NC(=S)NN=C1CCS(=O)(=O)c2ccc(O)cc21 (mixture of isomers)	> 10 µM	> 10 µM

More lines, now with the values ahead:

IC50 (Procathepsin L)	IC50 (Cathepsin B)	SMILES
0.152 µM	> 10 µM	NC(=S)N/N=C1\CCSc2ccc(Br)cc21
0.046 µM	> 10 µM	NC(=S)N/N=C1\CCSc2cc(F)c(F)cc21
1.5 µM	> 10 µM	NC(=S)N/N=C1\CCSc2c(F)cc(F)cc21
0.434 µM	> 10 µM	NC(=S)N/N=C1\CCSc2c(F)cc(Br)cc21
2.72 µM	> 10 µM	CCc1ccc2c(c1)/C(=N/NC(N)=S)CCS2
> 10 µM	> 10 µM	CSc1ccc2c(c1)/C(=N/NC(N)=S)CCS2
0.068 µM	> 10 µM	NC(=S)N/N=C1\CCSc2ccc([N+](=O)[O-])cc21
> 10 µM	> 10 µM	CC(=O)Nc1ccc2c(c1)/C(=N/NC(N)=S)CCS2
> 10 µM	> 10 µM	NC(=S)N/N=C1\CCS(=O)(=O)c2ccc(F)cc21
> 10 µM	> 10 µM	NC(=S)N/N=C1\CCS(=O)(=O)c2ccc(Cl)cc21
6.52 µM	> 10 µM	CCc1ccc2c(c1)/C(=N/NC(N)=S)CCS2(=O)=O
0.112 µM	> 10 µM	NC(=S)N/N=C1\CCS(=O)(=O)c2ccc([N+](=O)[O-])cc21
0.574 µM	> 10 µM	NC(=S)N/N=C1\CCS(=O)(=O)c2ccc(Br)cc21
